Data reported in patent US7582627B2, “3-aminoquinazolin-2,4-dione antibacterial agents” (Warner-Lambert Company, priority 2000, dated 2009).
pIC50: −log10 of the molar value. Values after ≈ are worked out from the molar mass of the structure shown. Where a name gives a salt, the structure may show the parent alone. Read-outs that look alike come from different tables or passages of the source.

Assays:
E. coli B90 = test: Antibacterial assay, microtitration MIC; assay type: cell-based; settings: for MIC: Escherichia coli
Procedure: (§1) The compounds of the present invention are tested against an assortment of Gram negative and Gram positive organisms using standard microtitration techniques (Cohen et al., Antimicrob. Agents Chemother., 1985; 28:766; Heifetz et al., Antimicrob. Agents Chemother., 1974; 6:124). The results of the evaluation of representative 3-aminoquinazolin-2,4-diones of Formula I are shown in Table 2 and compared to two 3-hydroxyquinazolin-2,4-diones.

E. coli MC4100 = test: Antibacterial assay, microtitration MIC; assay type: cell-based; settings: for MIC: Escherichia coli
Procedure: as §1

S. aureus 29213 = test: Antibacterial assay, microtitration MIC; assay type: cell-based
Procedure: as §1

S. pyogenes C203 = test: Antibacterial assay, microtitration MIC; assay type: cell-based; settings: for MIC: Streptococcus pyogenes
Procedure: as §1

E. faecalis RB1 = test: Antibacterial assay, microtitration MIC; assay type: cell-based; settings: for MIC: Enterococcus faecalis
Procedure: as §1

E. coli Tol C = test: Antibacterial assay, microtitration MIC; assay type: cell-based; settings: for MIC: Escherichia coli, read-out: Minimum Inhibitory Concentrations E. coli Tol C
Procedure: as §1

E. coli gyrase = target: T1, E. coli gyrase (Escherichia coli, UniProt P0AES4+P0AES6); test: DNA gyrase supercoiling inhibition assay; assay type: biochemical
T1 construct: purchased Lucent, Ltd., Leicester, UK
Procedure: The effects of invention compounds on the activity of DNA gyrase is determined in the supercoiling inhibition assay, following reaction conditions recommended by the enzyme supplier (Lucent, Ltd., Leicester, UK). Reactions are performed in buffer G (35 mM Tris-HCl (pH 7.5), 24 mM KCl, 4 mM MgCl2, 2 mM DTT, 1.8 mM spermidine, 1 mM ATP, 0.1 mg/mL bovine serum albumin). Relaxed plasmid pBR322 (0.25 μg, Lucent, Ltd., Leicester, UK) is reacted with 1 U E. coli gyrase (Lucent, Ltd., Leicester, UK), in the absence or presence of test compounds, for 30 minutes at 37° C. Reactions are stopped by the addition of SDS and proteinase K to respective final concentrations of 1% and 0.5 mg/mL. After an additional 30 minutes at 37° C., one-tenth volume of 10× loading buffer (0.3% bromophenol blue, 16% Ficoll, 10 mM Na2HPO4) is added, and reactions are loaded onto agarose gels and electrophoresed. The concentration of representative invention compounds of Formula I inhibiting 50% of the supercoiling activity of DNA gyrase is given as an IC50 and recorded in Table 2.

S. pyogenes = test: In vivo median protective dose, lethal systemic infection; settings: mice
Procedure: (§2) The in vivo activity of invention compounds is evaluated according to the procedure of Miller et al., Proc. Soc. Exp. Biol. Med, 1944; 57:261. The median protective dose (PD50) is determined in mice given lethal systemic infections. Two 3-aminoquinazolin-2,4-diones of the invention are compared to a […], and the results are presented in Table 3. The results establish the unexpected superiority of the 3-amino invention compounds compared to similar 3-hydroxy analogs.

E. coli LLM1 = test: Cross resistance antibacterial assay, microtitration MIC; assay type: cell-based; settings: Escherichia coli, LLM1, read-out: Minimum Inhibitory Concentrations E. coli LLM1
Procedure: (§3) The compounds of the present invention are tested against an assortment of ciprofloxacin resistant E. coli and S. aureus organisms described below using standard microtitration techniques (Cohen, et al., Antimicrob. Agents Chemother., 1985; 28:766; Heifetz, et al., Antimicrob. Agents Chemother., 1974; 6:124).

S. aureus UC-76 = test: as above; assay type: cell-based; settings: Staphylococcus aureus, UC76; typical sensitive laboratory strain (wild type); read-out: Minimum Inhibitory Concentrations S. aureus UC-76
Procedure: as §3

S. aureus 2554 = test: as above; assay type: cell-based; settings: Staphylococcus aureus, 2554, read-out: Minimum Inhibitory Concentrations S. aureus 2554
Procedure: as §3

E. coli JL4 = test: as above; assay type: cell-based; settings: Escherichia coli, Tol C pump deficient strain with E. coli W3110 background, read-out: Minimum Inhibitory Concentrations E. coli JL4
Procedure: as §3

S. aureus 2552 = test: as above; assay type: cell-based; settings: Staphylococcus aureus, read-out: Minimum Inhibitory Concentrations S. aureus 2552
Procedure: as §3

S. aureus 2558 = test: as above; assay type: cell-based; settings: Staphylococcus aureus, 2558, read-out: Minimum Inhibitory Concentrations S. aureus 2558
Procedure: as §3

E. coli = test: In vivo median protective dose, lethal systemic infection; settings: mice
Procedure: as §2

[1] = B90, read-out: Minimum Inhibitory Concentrations E. coli B90
[2] = MC4100, read-out: Minimum Inhibitory Concentrations E. coli MC4100
[3] = Staphylococcus aureus, 29213, read-out: Minimum Inhibitory Concentrations S. aureus 29213
[4] = C203, read-out: Minimum Inhibitory Concentrations S. pyogenes C203
[5] = RB1, read-out: Minimum Inhibitory Concentrations E. faecalis RB1
[6] = supercoiling of relaxed pBR322, 30 minutes at 37° C., read-out: E. coli gyrase IC50
[7] = B90, Gram negative, read-out: Minimum Inhibitory Concentrations E. coli B90
[8] = MC4100, Gram negative, read-out: Minimum Inhibitory Concentrations E. coli MC4100
[9] = Staphylococcus aureus, 29213, Gram positive, read-out: Minimum Inhibitory Concentrations S. aureus 29213
[10] = C203, Gram positive, read-out: Minimum Inhibitory Concentrations S. pyogenes C203
[11] = RB1, Gram positive, read-out: Minimum Inhibitory Concentrations E. faecalis RB1

T1 sequence (P0AES4 whole entry, one chain of several): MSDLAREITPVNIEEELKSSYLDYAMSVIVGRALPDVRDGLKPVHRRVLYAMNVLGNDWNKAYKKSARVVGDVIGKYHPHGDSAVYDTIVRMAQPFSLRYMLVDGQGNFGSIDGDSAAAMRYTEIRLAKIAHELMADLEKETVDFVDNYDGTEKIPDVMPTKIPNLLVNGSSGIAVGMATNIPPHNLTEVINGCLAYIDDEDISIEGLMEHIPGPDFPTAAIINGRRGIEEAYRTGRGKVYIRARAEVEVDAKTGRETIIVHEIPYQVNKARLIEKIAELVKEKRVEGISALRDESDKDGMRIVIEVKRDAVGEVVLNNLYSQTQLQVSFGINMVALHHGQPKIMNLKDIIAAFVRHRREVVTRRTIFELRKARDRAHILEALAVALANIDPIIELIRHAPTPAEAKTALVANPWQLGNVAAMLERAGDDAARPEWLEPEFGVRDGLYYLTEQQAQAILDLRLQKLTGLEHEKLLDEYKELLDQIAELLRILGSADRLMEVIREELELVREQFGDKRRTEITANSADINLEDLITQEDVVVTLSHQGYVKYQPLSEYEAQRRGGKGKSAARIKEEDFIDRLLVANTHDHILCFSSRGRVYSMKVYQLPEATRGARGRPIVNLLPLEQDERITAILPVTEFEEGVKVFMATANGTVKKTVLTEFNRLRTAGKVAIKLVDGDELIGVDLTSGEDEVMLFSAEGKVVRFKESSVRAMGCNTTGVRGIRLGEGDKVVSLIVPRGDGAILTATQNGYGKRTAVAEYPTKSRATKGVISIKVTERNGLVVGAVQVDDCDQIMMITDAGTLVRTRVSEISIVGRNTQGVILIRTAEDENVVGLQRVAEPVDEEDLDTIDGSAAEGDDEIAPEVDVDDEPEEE

Row | SMILES | MIC (E. coli Tol C) [µg/mL] | pIC50 (E. coli gyrase; [6]) | MIC (E. coli LLM1) [µg/mL] | MIC (S. aureus UC-76) [µg/mL] | MIC (S. aureus 2554) [µg/mL] | MIC (E. coli JL4) [µg/mL] | MIC (S. aureus 2552) [µg/mL] | MIC (S. aureus 2558) [µg/mL] | MIC (E. coli B90; [7]) [µg/mL] | MIC (E. coli MC4100; [8]) [µg/mL] | MIC (S. aureus 29213; [9]) [µg/mL] | MIC (S. pyogenes C203; [10]) [µg/mL] | MIC (E. faecalis RB1; [11]) [µg/mL] | other results
1 | NCC1CCN(c2c(F)cc3c(=O)n(N)c(=O)n(C4CC4)c3c2Cl)C1 (stereo not shown) [Compound 1, 3-Amino-7-(3-aminomethylpyrrolidin-1-yl)-8-chloro-1-cyclopropyl-6-fluoro-1H-quinazoline-2,4-dione hydrochloride] | 0.25 | 6.00 | 0.5 | 0.13 | 1 | 0.13 | 1 | 1 | – | – | – | – | – | MIC (E. coli B90; [1]): 1 µg/mL; MIC (E. coli MC4100; [2]): 2 µg/mL; MIC (S. aureus 29213; [3]): 0.5 µg/mL; MIC (S. pyogenes C203; [4]): 0.13 µg/mL; MIC (E. faecalis RB1; [5]): 1 µg/mL; PD50 (S. pyogenes): 12 mg/kg
2 | CC1(CN)CCN(c2c(F)cc3c(=O)n(N)c(=O)n(C4CC4)c3c2Cl)C1 (stereo not shown) [Compound 3, 3-Amino-7-[3-(aminomethyl)-3-methylpyrrolidin-1-yl]-8-chloro-1-cyclopropyl-6-fluoro-1H-quinazoline-2,4-dione hydrochloride] | – | – | 1 | 1 | 2 | 0.5 | 2 | 4 | – | – | – | – | – | –
3 | Cl.N[C@H]1CCN(c2c(F)cc3c(=O)n(N)c(=O)n(NC4CC4)c3c2F)C1 [Compound 7, 3-Amino-7-[(S)-3-aminopyrrolidin-1-yl]-1-cyclopropylamino-6,8-difluoro-1H-quinazoline-2,4-dione hydrochloride] | – | 5.89 | – | – | – | – | – | – | – | – | – | – | – | Minimum Inhibitory Concentrations E. coli B90 (E. coli B90; Gram negative): 0.5 µg/mL; Minimum Inhibitory Concentrations E. coli MC4100 (E. coli MC4100; Gram negative): 2.0 µg/mL; Minimum Inhibitory Concentrations S. aureus 29213 (S. aureus 29213; Gram positive): 8.0 µg/mL; Minimum Inhibitory Concentrations S. pyogenes C203 (S. pyogenes C203; Gram positive): 4.0 µg/mL; Minimum Inhibitory Concentrations E. faecalis RB1 (E. faecalis RB1; Gram positive): 8.0 µg/mL; Minimum Inhibitory Concentrations E. coli Tol C (E. coli Tol C; Gram negative): 0.25 µg/mL
4 | N[C@H]1CCN(c2c(F)c(F)c3c(=O)n(N)c(=O)n(C4CC4)c3c2F)C1 [Compound 9, 3-Amino-7-((S)-3-aminopyrrolidin-1-yl)-1-cyclopropyl-5,6,8-trifluoro-1H-quinazoline-2,4-dione hydrochloride] | 0.5 | 5.52 | – | – | – | – | – | – | – | – | – | – | – | MIC (E. coli B90; [1]): 1 µg/mL; MIC (E. coli MC4100; [2]): 2 µg/mL; MIC (S. aureus 29213; [3]): 16 µg/mL; MIC (S. pyogenes C203; [4]): 16 µg/mL; MIC (E. faecalis RB1; [5]): 32 µg/mL
5 | Cl.NC1CCN(c2c(F)cc3c(=O)n(N)c(=O)n(C4CC4)c3c2Cl)C1 (stereo not shown) [Compound 10, 3-Amino-7-(3-aminopyrrolidin-1-yl)-8-chloro-1-cyclopropyl-6-fluoro-1H-quinazoline-2,4-dione hydrochloride] | – | – | – | – | – | – | – | – | – | – | – | – | – | PD50 (E. coli): 72 mg/kg
6 | Nc1c(F)c(N2CC[C@H](N)C2)c(F)c2c1c(=O)n(N)c(=O)n2C1CC1 [Compound 11, 7-((S)-3-Aminopyrrolidin-1-yl)-1-cyclopropyl-3,5-diamino-6,8-difluoro-1H-quinazoline-2,4-dione hydrochloride] | 0.25 | 4.96 | – | – | – | – | – | – | – | – | – | – | – | MIC (E. coli B90; [1]): 0.5 µg/mL; MIC (E. coli MC4100; [2]): 2 µg/mL; MIC (S. aureus 29213; [3]): 8 µg/mL; MIC (S. pyogenes C203; [4]): 4 µg/mL; MIC (E. faecalis RB1; [5]): 8 µg/mL
7 | Cl.Nn1c(=O)c2cc(F)c(N3CCC(CO)C3)c(Cl)c2n(C2CC2)c1=O (stereo not shown) [Compound 12, 3-Amino-7-(3-hydroxymethylpyrrolidin-1-yl)-8-chloro-1-cyclopropyl-6-fluoro-1H-quinazoline-2,4-dione hydrochloride] | 0.13 | – | 0.25 | 1 | 1 | 0.06 | 1 | 2 | 0.25 | 16 | 2 | 8 | 4 | melting point: 78 to 80 °C; pIC50 (E. coli gyrase): 5.68
8 | Cl.N[C@@H]1CN(c2c(F)cc3c(=O)n(N)c(=O)n(C4CC4)c3c2Cl)CC12CC2 [Compound 14, 3-Amino-7-((S)-7-amino-5-azaspiro[2.4]hept-5-yl)-8-chloro-1-cyclopropyl-6-fluoro-1H-quinazoline-2,4-dione hydrochloride] | 0.5 | – | – | – | – | – | – | – | 0.25 | 4 | 8 | 4 | 8 | melting point: 177 to 179 °C; pIC50 (E. coli gyrase): 5.62
9 | N[C@@H]1[C@H]2CN(c3cc4c(cc3F)c(=O)n(O)c(=O)n4C3CC3)C[C@@H]12 [drawing 284, reference compound] | 0.25 (≈ 0.752 µM) | 6.05 | – | – | – | – | – | – | 0.25 (≈ 0.752 µM) | 1 (≈ 3.01 µM) | 4 (≈ 12 µM) | 2 (≈ 6.02 µM) | 4 (≈ 12 µM) | –
10 | N[C@@H]1[C@H]2CN(c3cc4c(cc3F)c(=O)n(O)c(=O)n4C3CC3)C[C@@H]12 [drawing 286, reference compound] | – | – | – | – | – | – | – | – | – | – | – | – | – | PD50 (S. pyogenes): >100 mg/kg
11 | N[C@@H]1[C@H]2CN(c3cc4c(cc3F)c(=O)n(O)c(=O)n4C3CC3)C[C@@H]12 [drawing 287, reference compound] | – | – | 4 (≈ 12 µM) | 4 (≈ 12 µM) | 32 (≈ 96.3 µM) | 0.25 (≈ 0.752 µM) | 32 (≈ 96.3 µM) | > 64 | – | – | – | – | – | –
12 | O=c1c2cc(F)c(N3C[C@@H]4CCCN[C@@H]4C3)cc2n(C2CC2)c(=O)n1O [reference compound] | 1 (≈ 2.77 µM) | 5.30 | – | – | – | – | – | – | 2 (≈ 5.55 µM) | 8 (≈ 22.2 µM) | 32 (≈ 88.8 µM) | 32 (≈ 88.8 µM) | 64 (≈ 178 µM) | –
13 | N[C@H]1CCN(c2cc3c(cc2F)c(=O)n(O)c(=O)n3C2CC2)C1 [reference compound] | – | – | 2 (≈ 6.24 µM) | 4 (≈ 12.5 µM) | > 64 | 0.5 (≈ 1.56 µM) | > 64 | > 64 | – | – | – | – | – | –
